Test results published in BindingDB's records for patent WO2022021841 (Sichuan University, 2022).

Assays:
[1] = biological target: T1, Replicase polyprotein 1ab (Severe acute respiratory syndrome coronavirus 2, UniProt P0DTD1); test: SARS-CoV-2 in Vero E6
[2] = biological target: T1, Replicase polyprotein 1ab; test: SARS-CoV-2 Coronavirus 3C Protease FRET Assay
Protocol: IC50 values were calculated by fitting a curve of Vmax to experimental values with the controls (DMSO) as the top and bottom limits of the curve. […] GraphPad Prism is the analysis tool for all measurements.

SMILES | EC50 [1] [nM] | Ki [2] [nM]
CC1(C)[C@@H]2C(C(=O)N[C@H](C=O)C[C@@H]3CCNC3=O)N(C(=O)COc3ccc(Cl)cc3)C[C@@H]21 (stereo partly specified) [WO2022021841, 43] | 530 | 9
COc1ccc(OCC(=O)N2C[C@@H]3CCC[C@@H]3C2C(=O)N[C@H](C=O)C[C@@H]2CCNC2=O)cc1 (stereo partly specified) [WO2022021841, 17] | 24700 | 20
O=C[C@H](C[C@@H]1CCNC1=O)NC(=O)C1[C@@H]2CCC[C@H]2CN1C(=O)CCc1cccc(F)c1 (stereo partly specified) [WO2022021841, 37] | 2970 | 7
CC1(C)[C@@H]2C(C(=O)N[C@H](C=O)C[C@@H]3CCNC3=O)N(C(=O)COc3ccc(Cl)c(Br)c3)C[C@@H]21 (stereo partly specified) [WO2022021841, 30] | 1150 | 14
CC1(C)[C@@H]2C(C(=O)N[C@H](C=O)C[C@@H]3CCNC3=O)N(C(=O)COc3ccc4ccccc4c3)C[C@@H]21 (stereo partly specified) [WO2022021841, 27] | 1270 | 54
COc1ccc(OCC(=O)N2C[C@H]3[C@@H](C2C(=O)N[C@H](C=O)C[C@@H]2CCNC2=O)C3(C)C)cc1F (stereo partly specified) [WO2022021841, 28] | 4680 | 47
COc1ccc(OCC(=O)N2C[C@H]3[C@@H](C2C(=O)N[C@H](C=O)C[C@@H]2CCNC2=O)C3(C)C)cc1OC (stereo partly specified) [WO2022021841, 20] | 1730 | 12
CC1(C)[C@@H]2C(C(=O)N[C@H](C=O)C[C@@H]3CCNC3=O)N(C(=O)COc3ccc(Br)cc3Cl)C[C@@H]21 (stereo partly specified) [WO2022021841, 31] | 1180 | 15
O=C[C@H](C[C@@H]1CCNC1=O)NC(=O)C1[C@@H]2CCC[C@H]2CN1C(=O)COc1ccc(Cl)cc1 (stereo partly specified) [WO2022021841, 26] | 670 | 9
Cc1cc(Cl)ccc1OCC(=O)N1C[C@@H]2CCC[C@H]2C1C(=O)N[C@H](C=O)C[C@@H]1CCNC1=O (stereo partly specified) [WO2022021841, 24] | 1500 | 22
O=C[C@H](C[C@@H]1CCNC1=O)NC(=O)C1[C@@H]2CCC[C@H]2CN1C(=O)CCc1cc(Cl)cc(Cl)c1 (stereo partly specified) [WO2022021841, 64] | – | 33
COc1cc(OCC(=O)N2C[C@H]3[C@@H](C2C(=O)N[C@H](C=O)C[C@@H]2CCNC2=O)C3(C)C)cc(OC)c1OC (stereo partly specified) [WO2022021841, 35] | – | 51
CC1(C)[C@@H]2C(C(=O)N[C@H](C=O)C[C@@H]3CCNC3=O)N(C(=O)COc3ccc(Cl)cc3Cl)C[C@@H]21 (stereo partly specified) [WO2022021841, 44] | 660 | 10
CC1CNC(=O)[C@@H]1C[C@H](NC(=O)C1[C@@H]2[C@H](CN1C(=O)COc1cccc(-c3ccc(Cl)cc3)c1)C2(C)C)C(=O)CF (stereo partly specified) [WO2022021841, 8] | – | 17
O=C[C@H](C[C@@H]1CCNC1=O)NC(=O)C1[C@@H]2CCC[C@H]2CN1C(=S)NCc1ccc(F)cc1 (stereo partly specified) [WO2022021841, 58] | – | 30
O=C[C@H](C[C@@H]1CCNC1=O)NC(=O)C1[C@@H]2CCC[C@H]2CN1C(=O)CCc1ccc(Cl)cc1 (stereo partly specified) [WO2022021841, 65] | – | 44
O=C[C@H](C[C@@H]1CCNC1=O)NC(=O)C1[C@@H]2CCC[C@H]2CN1C(=O)CCc1ccc(F)c(F)c1 (stereo partly specified) [WO2022021841, 25] | – | 16
O=C[C@H](C[C@@H]1CCNC1=O)NC(=O)C1[C@@H]2CCC[C@H]2CN1C(=O)CCc1cccc(O)c1 (stereo partly specified) [WO2022021841, 73] | – | 31

SMILES | EC50 [1] [nM] | Ki [2] [nM]
O=C[C@H](C[C@@H]1CCNC1=O)NC(=O)C1[C@@H]2CCC[C@H]2CN1C(=O)COc1ccc(Cl)c(Cl)c1 (stereo partly specified) [WO2022021841, 45] | 830 | 19
CC1(C)[C@@H]2C(C(=O)N[C@H](C=O)C[C@@H]3CCNC3=O)N(C(=O)COc3ccc4c(c3)OCO4)C[C@@H]21 (stereo partly specified) [WO2022021841, 21] | – | 73
O=C[C@H](C[C@@H]1CCNC1=O)NC(=O)C1[C@@H]2CCC[C@H]2CN1C(=S)NCc1cccc(F)c1 (stereo partly specified) [WO2022021841, 59] | – | 37
CC(C)(C)NC(=O)C(=O)[C@H](C[C@@H]1CCNC1=O)NC(=O)C1[C@@H]2CCC[C@H]2CN1C(=O)COc1ccc(Cl)cc1Cl (stereo partly specified) [WO2022021841, 50] | – | 1190
CC1(C)[C@@H]2C(C(=O)N[C@H](C=O)C[C@@H]3CCNC3=O)N(C(=O)CCc3cccc(F)c3)C[C@@H]21 (stereo partly specified) [WO2022021841, 36] | 2230 | 16
O=C[C@H](C[C@@H]1CCNC1=O)NC(=O)C1[C@@H]2CCC[C@H]2CN1C(=O)COc1ccc2c(c1)OCCO2 (stereo partly specified) [WO2022021841, 22] | – | 93
CCC[C@@H](NC(=O)C1[C@@H]2CCC[C@H]2CN1C(=O)c1cc2ccccc2[nH]1)C(=O)C(=O)NC1CC1 (stereo partly specified) [WO2022021841, 11] | – | 960
COc1cccc(CCC(=O)N2C[C@@H]3CCC[C@H]3C2C(=O)N[C@H](C=O)C[C@@H]2CCNC2=O)c1 (stereo partly specified) [WO2022021841, 78] | – | 68
CC1(C)[C@@H]2C(C(=O)N[C@H](C=O)C[C@@H]3CCNC3=O)N(C(=O)COc3ccc(F)c(F)c3)C[C@@H]21 (stereo partly specified) [WO2022021841, 33] | 5570 | 13
CC1(C)[C@@H]2C(C(=O)N[C@H](C=O)C[C@@H]3CCNC3=O)N(C(=O)c3ccc4ccccc4c3)C[C@@H]21 (stereo partly specified) [WO2022021841, 16] | – | 343
CC1(C)[C@@H]2C(C(=O)N[C@H](C=O)C[C@@H]3CCNC3=O)N(C(=O)COc3cc(F)cc(F)c3)C[C@@H]21 (stereo partly specified) [WO2022021841, 34] | 1540 | 20
O=C[C@H](C[C@@H]1CCNC1=O)NC(=O)C1[C@H]2CCC[C@H]2CN1C(=O)CCc1cc(F)cc(F)c1 (stereo partly specified) [WO2022021841, 19] | 5630 | 11
O=C(N[C@@H](C[C@@H]1CCNC1=O)C(=O)CF)C1[C@H]2CCC[C@H]2CN1C(=O)COc1ccc(Cl)cc1Cl (stereo partly specified) [WO2022021841, 3] | – | 18
CC1(C)CNC(=O)[C@@H]1C[C@@H](C=O)NC(=O)C1[C@@H]2CCC[C@H]2CN1C(=O)COc1ccc(Cl)cc1Cl (stereo partly specified) [WO2022021841, 54] | – | 24
O=C(NC1CC1)C(=O)[C@H](C[C@@H]1CCNC1=O)NC(=O)C1[C@@H]2CCC[C@H]2CN1C(=O)COc1ccc(Cl)cc1Cl (stereo partly specified) [WO2022021841, 52] | – | 875
CC1(C)[C@H]2CN(C(=O)COc3ccc(Cl)cc3Cl)C(C(=O)N[C@H](C=O)C[C@H]3C(=O)NCC3(F)F)[C@@H]21 (stereo partly specified) [WO2022021841, 56] | – | 33
O=C(N[C@@H](C[C@@H]1CCNC1=O)C(=O)CCl)C1[C@@H]2CCC[C@H]2CN1C(=O)COc1ccc(Cl)cc1Cl (stereo partly specified) [WO2022021841, 42] | – | 19
